Where a SMILES comes first, the peptide text is derived from it. The star is where a group is joined. Cbz = O=C(OCc1ccccc1)*; OtBu = CC(C)(C)O*
What was measured:
NF-κB = conditions: Pierce et al., 1997; cited from earlier work
RelB [1] = test: RelB DNA binding ELISA on nuclear extracts of monocyte-derived DC; type: cell-based; conditions: human PB monocytes 48 h with GM-CSF and IL-4, 8 μM BAY 11-7082
Procedure: FIG. 7 is a graphical representation showing that nuclear extracts from BAY-treated monocyte-derived DC (MDDC) lack RelB-DNA binding and are unresponsive to LPS. MDDC were generated for 48 h from PB monocytes in the presence of GM-CSF and IL-4 in the presence (BAY DC) or absence (control DC) of 8 μM BAY, then stimulated with 1 μg/mL LPS for 24 hr. Nuclear extracts were prepared and analysed for NFkB DNA binding by ELISA.
Human PB monocytes were purified from PBMC by immunomagnetic selection using anti-CD14. They were incubated for 48 h in the presence of 800 U/mL each GM-CSF and IL-4 in RPMI and 10% FCS in the presence or absence of 8 μM BAY 11-7082. Nuclear extracts were prepared and RelB DNA binding was assessed using ELISA, as previously described (O'Sullivan and Thomas, 2002). […]
p50 and RelB DNA binding was detected by ELISA using a Mercury Transfactor p50 Kit (Clontech, Calif.). 10 μg of nuclear extract were bound to wells coated with NF-κB consensus oligonucleotide then incubated with either anti-RelB (sc-226) or anti-p50 (sc-7178), followed by anti-rabbit […] Ig (Silenus) and then detected by measuring color development of TMB at 650 nm using a Multiskan plate reader (Labsystems) (O'Sullivan and Thomas, 2002).

[2] = tested on: human monocyte-derived DC; test: Phenotype of human monocyte-derived DC by flow cytometry; type: cell-based; conditions: human monocytes 48 hours, GM-CSF, IL-4; 10 κM BAY11-7082 or 2.5 or 10 μM PSI; relative to immature DC
Procedure: FIG. 8 is a graphical representation showing that modified human DC lack CD40 compared to immature DC. MDDC were generated for 48 h from PB monocytes in the presence of GM-CSF and IL-4 in the presence (modified DC) or absence (immature DC) of BAY, then stained for various cell surface markers and analysed by flow cytometry.
FIG. 9 is a graphical representation showing that modified human DC are unresponsive to CD40L. MDDC were generated for 48 h from PB monocytes in the presence of GM-CSF and IL-4 in the presence (modified DC) or absence (immature DC) of BAY, washed then incubated with or without 50 ng/ml soluble CD40L. Cells were then stained for CD86 and HLA-DR and analysed by flow cytometry.
FIG. 22 is a graphical representation showing the phenotype of NF-κB^− dendritic cells is reproducible with different NF-κB inhibitors. Dendritic cells were generated from human monocytes for 48 hours in the presence of GM-CSF, IL-4 and in the presence or absence of either 10 μM BAY11-7082 or 2.5 or 10 μM PSI (N-benzyloxycarbonyl-Ile-Glu(O-tert-butyl)-Ala-leucinal). Cells were then stained with anti-CD40, anti-CD86, anti-HLA-DR and anti-MHC class I mAb (green lines) and compared with isotype control staining (purple) by flow cytometry.
Human PB monocytes were purified from PBMC by immunomagnetic selection using anti-CD14. They were incubated for 48 h in the presence of 800 U/mL each GM-CSF and IL-4 in RPMI and 10% FCS in the presence or absence of 8 μM BAY 11-7082. Nuclear extracts were prepared and RelB DNA binding was assessed using ELISA, as previously described (O'Sullivan and Thomas, 2002). […] In keeping with the lack of CD40 expression, modified DC were unresponsive to 24 h incubation with 500 ng/mL soluble CD40 ligand trimer (sCD40L, Immunex, Seattle Wash.).
The present inventors examined whether the phenotype of the described dendritic cells that are capable of inducing tolerance when transferred in vivo, is reproducible when dendritic cells are generated with various NT-κB^− inhibitors. Dendritic cells were generated from human monocles for 48 hours in the presence of GM-CSF, IL-4 and in the presence or absence of either 10 […] of the IκB phosphorylation inhibitor BAY11-7082 or 2.5 or 10 μM of the proteasome inhibitor PSI (N-benzyloxycarbonyl-Ile-Glu(O-tert-butyl)-Ala-leucinal).

NF-κB subunits = test: Immunoblot of nuclear and cytoplasmic extracts of BMDCs for NF-κB subunits; type: cell-based; conditions: murine BM precursors 6 days with GM-CSF and IL-4 in the presence of BAY
Procedure: To independently assess the relationship between RelB nuclear translocation and tolerance induction, BMDCs were generated in the presence or absence of the compound BAY 11-7082 (BAY). […] Murine BM precursors were incubated for 6 days with GM-CSF and IL-4 to produce BMDCs, in the presence or absence of BAY. All NF-κB subunits were demonstrable in BMDCs generated in the absence of BAY, and were present in both nuclear and cytoplasmic extracts (FIG. 2a). […] However, CD86 was expressed at higher levels in BAY-treated DCs than RelB-deficient DCs. […]
Nuclear and cytoplasmic extracts were prepared as previously described (Pettit et al., 1997) and protein estimations carried out using a Protein Assay kit (Bio-Rad, Hercules, Calif.). […] Following transfer to nitrocellulose (Amersham. Sussex, England), membranes were immunoblotted with either anti-RelB (sc-226), anti-p50 (sc-7178), anti-c-Rel, anti-RelA, or anti-p52 antibodies (all from Santa Cruz Biotechnology) followed by sheep anti-rabbit HRP-conjugated Ig (Silenus, Hawthorn, Australia) and then detected by enhanced chemiluminescence (ECL, Life Technologies, MO, USA) according to the manufacturer's instructions (Amersham).

BMDCs = test: Cell surface marker expression, yield and viability of murine BMDCs generated with BAY (flow cytometry); type: cell-based
Procedure: To independently assess the relationship between RelB nuclear translocation and tolerance induction, BMDCs were generated in the presence or absence of the compound BAY 11-7082 (BAY). […] Murine BM precursors were incubated for 6 days with GM-CSF and IL-4 to produce BMDCs, in the presence or absence of BAY. All NF-κB subunits were demonstrable in BMDCs generated in the absence of BAY, and were present in both nuclear and cytoplasmic extracts (FIG. 2a). […] However, CD86 was expressed at higher levels in BAY-treated DCs than RelB-deficient DCs. […] The ability of adoptively-transferred BAY-treated DCs to prime an mBSA-specific T cell proliferative response in naïve syngeneic mice when pulsed with the antigen mBSA was reduced, compared with mBSA-pulsed untreated BMDCs, or immunisation with mBSA and CFA (FIG. 2c).
According to the inventors' experience, every new batch of BAY needs to be titrated. The final concentration for mouse BMDC cultures may range between 2 and 15 μM. Since tolerance induction correlates precisely with CD40 expression by the DC, varying concentrations of BAY are added to BM DC cultures. At day 6-8, yield is check and viability test using PI and CD40 expression by FACS. […]
BMDCs were incubated for 30 min on ice with anti-CD86-FITC (GL1, PharMingen, San Diego, Calif.), anti-CD11c-PE (HL3, PharMingen), anti-CD11b-PE (M1/70, PharMingen), F4/80-PE (Serotec, Raleigh, N.C.), CD8α-PE (53-6.7, PharMingen), CD3-PE (17A2, PharMingen), or with anti-CD40 (3/23, PharMingen), anti-CD19 (1D3, American Type Culture Collection, ATCC), anti-Ly6-g and c (Gr1, RB6-BC5), anti-CD45R (B220, RA3-6B2, each a gift from G. Hill, Queensland Institute for Medical Research, Brisbane, Q1d), anti-MHC class I and anti-MHC class II (2G9, PharMingen), followed by biotinylated rabbit anti-rat Ig (DAKO, CA) and then streptavidin-FITC (DAKO). After washing, cells were analyzed using a FACScalibur (Becton Dickinson, San Jose, Calif.). Intracellular cytokine production was measured in lymphocytes by flow cytometric staining as described, with minor modifications (Sander et al., 1991). […]

RelB [3] = conditions: LPS-treated monocyte-derived dendritic cells; cited from earlier work
[4] = murine BMDCs generated in the presence of BAY

Compound	TNF-α-stimulated NF-κB translocation (NF-κB)	RelB nuclear DNA binding activity (RelB [1])	CD40 expression [2]	CD86 and MHC class I expression [2]	HLA-DR expression [2]	NFκB subunit immunoreactivity in nuclear and cytoplasmic extracts (NF-κB subunits)	toxicity: yield and viability of BM DC cultures (BMDCs; concentrations higher than the minimum that suppresses CD40)	MHC class I and class II expression (BMDCs; [4])	cell surface CD40 expression (BMDCs; [4])	nuclear RelB translocation (RelB [3])
Cc1ccc(S(=O)(=O)/C=C/C#N)cc1 [BAY 11-7082]	block TNF-α-stimulated NF-κB translocation through inhibition of IκB phosphorylation	lacked RelB nuclear DNA binding activity	CD40 expression was suppressed	CD86 and MHC class I expression were not changed	HLA-DR was reduced	in the cytoplasm but not the nucleus	more toxic and affect yield and viability	expressed reduced levels of MHC class I and class II	lacked cell surface CD40 expression	
CC[C@H](C)[C@H](NC(=O)OCc1ccccc1)C(=O)N[C@@H](CCC(=O)OC(C)(C)C)C(=O)N[C@@H](C)C(=O)N[C@H](C=O)CC(C)C [PSI, N-benzyloxycarbonyl-Ile-Glu(O-tert-butyl)-Ala-leucinal] (Cbz-IE(OtBu)AL-aldehyde)			CD40 expression was suppressed	CD86 and MHC class I expression were not changed	HLA-DR was reduced					
C[S+]([O-])c1ccc(-c2nc(-c3ccncc3)c(-c3ccc(F)cc3)[nH]2)cc1 (stereo not shown) [SB203580]										blocks nuclear RelB translocation
